Laboratory results as given in ChEMBL document CHEMBL1201862, “PubChem BioAssay data set” (2004).
Active and inactive are the calls of the source.

Legend:
Cytochrome P450 2C9 = Cytochrome P450 2C9 (Homo sapiens, UniProt P11712)
Vero [1] = assay: cells; assay type: functional, cell-based; settings: Chlorocebus sabaeus
[2] = HEp-2 cell cytotoxicity, dose response, cytotoxicity control for RSV inhibitor project, HTS (AID 2410); assay type: functional; settings: human respiratory syncytial virus
Nonstructural protein 1 = Nonstructural protein 1 (Influenza A virus, UniProt Q194T2); assay type: functional, Influenza A virus (A/California/07/2009(H1N1))
Nonstructural protein 1, sequence (Q194T2 whole entry): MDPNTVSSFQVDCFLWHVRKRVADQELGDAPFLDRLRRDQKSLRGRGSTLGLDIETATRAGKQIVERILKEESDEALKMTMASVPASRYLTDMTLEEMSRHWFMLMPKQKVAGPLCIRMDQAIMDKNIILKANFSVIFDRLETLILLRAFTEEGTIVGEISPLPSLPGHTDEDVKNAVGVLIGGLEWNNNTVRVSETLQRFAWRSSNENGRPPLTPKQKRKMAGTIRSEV

[3] = Counterscreen for AddAB inhibitors: absorbance-based bacterial cell-based high throughput dose response assay for inhibitors of bacterial viability. [Related pubchem assays (depositor defined):AID435030, AID449728, AID449731, AID488942, AID488955, AID488956]; assay type: functional
Exodeoxyribonuclease V = target: T1, Exodeoxyribonuclease V (Escherichia coli (strain K12), UniProt P04993+P07648+P08394); assay: E. coli RecBCD inhibitors, dose response, counter-screen for AddAB inhibitor project, absorbance, V66 E. coli, mutant T4 phage (AID 492957); assay type: functional, cell-based, Escherichia coli str. K-12 substr. MG1655
T1 sequence (P04993 whole entry): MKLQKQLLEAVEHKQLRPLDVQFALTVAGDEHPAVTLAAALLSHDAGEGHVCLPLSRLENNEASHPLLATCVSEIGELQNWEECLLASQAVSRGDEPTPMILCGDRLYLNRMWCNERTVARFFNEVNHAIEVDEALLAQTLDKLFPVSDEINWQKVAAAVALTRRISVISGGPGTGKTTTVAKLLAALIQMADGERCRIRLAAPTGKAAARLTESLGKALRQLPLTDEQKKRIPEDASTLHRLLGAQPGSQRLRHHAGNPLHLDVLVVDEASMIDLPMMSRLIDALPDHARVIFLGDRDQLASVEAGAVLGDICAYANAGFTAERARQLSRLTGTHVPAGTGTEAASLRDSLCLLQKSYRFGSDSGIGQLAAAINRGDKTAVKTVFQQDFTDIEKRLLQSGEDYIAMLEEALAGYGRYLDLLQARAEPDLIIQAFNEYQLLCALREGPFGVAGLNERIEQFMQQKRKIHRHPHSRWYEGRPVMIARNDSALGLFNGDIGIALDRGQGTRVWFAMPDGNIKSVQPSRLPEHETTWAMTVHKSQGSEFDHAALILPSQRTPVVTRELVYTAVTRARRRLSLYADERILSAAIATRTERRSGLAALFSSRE
T1 sequence (P07648 whole entry): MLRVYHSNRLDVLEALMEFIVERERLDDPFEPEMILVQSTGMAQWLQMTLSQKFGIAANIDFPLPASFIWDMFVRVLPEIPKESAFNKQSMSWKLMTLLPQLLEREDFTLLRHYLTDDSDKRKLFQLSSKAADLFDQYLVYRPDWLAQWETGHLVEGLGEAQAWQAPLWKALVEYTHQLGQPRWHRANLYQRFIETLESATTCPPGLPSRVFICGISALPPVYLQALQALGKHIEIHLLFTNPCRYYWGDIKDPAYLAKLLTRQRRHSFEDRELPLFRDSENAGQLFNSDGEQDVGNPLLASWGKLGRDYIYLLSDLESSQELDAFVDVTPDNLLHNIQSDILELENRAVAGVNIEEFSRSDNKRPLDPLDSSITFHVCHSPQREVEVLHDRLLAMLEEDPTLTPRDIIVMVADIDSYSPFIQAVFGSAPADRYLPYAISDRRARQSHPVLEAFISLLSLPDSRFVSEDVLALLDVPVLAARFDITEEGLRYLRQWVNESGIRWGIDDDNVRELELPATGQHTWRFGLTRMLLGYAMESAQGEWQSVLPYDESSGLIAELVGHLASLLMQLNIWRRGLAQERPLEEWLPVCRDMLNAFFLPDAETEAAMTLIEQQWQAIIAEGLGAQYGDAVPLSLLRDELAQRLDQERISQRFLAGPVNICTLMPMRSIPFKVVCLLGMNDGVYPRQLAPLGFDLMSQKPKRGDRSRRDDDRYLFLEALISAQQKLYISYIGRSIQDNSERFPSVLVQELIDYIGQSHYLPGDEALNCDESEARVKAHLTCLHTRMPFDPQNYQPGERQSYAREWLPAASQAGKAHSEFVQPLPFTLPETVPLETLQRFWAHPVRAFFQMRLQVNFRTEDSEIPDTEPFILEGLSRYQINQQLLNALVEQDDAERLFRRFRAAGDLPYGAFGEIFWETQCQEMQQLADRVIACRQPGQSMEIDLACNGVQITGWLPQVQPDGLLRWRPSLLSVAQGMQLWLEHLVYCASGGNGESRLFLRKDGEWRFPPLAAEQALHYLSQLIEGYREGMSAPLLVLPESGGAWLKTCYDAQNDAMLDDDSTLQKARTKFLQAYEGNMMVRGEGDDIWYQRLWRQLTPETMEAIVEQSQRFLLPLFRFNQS
T1 sequence (P08394 whole entry): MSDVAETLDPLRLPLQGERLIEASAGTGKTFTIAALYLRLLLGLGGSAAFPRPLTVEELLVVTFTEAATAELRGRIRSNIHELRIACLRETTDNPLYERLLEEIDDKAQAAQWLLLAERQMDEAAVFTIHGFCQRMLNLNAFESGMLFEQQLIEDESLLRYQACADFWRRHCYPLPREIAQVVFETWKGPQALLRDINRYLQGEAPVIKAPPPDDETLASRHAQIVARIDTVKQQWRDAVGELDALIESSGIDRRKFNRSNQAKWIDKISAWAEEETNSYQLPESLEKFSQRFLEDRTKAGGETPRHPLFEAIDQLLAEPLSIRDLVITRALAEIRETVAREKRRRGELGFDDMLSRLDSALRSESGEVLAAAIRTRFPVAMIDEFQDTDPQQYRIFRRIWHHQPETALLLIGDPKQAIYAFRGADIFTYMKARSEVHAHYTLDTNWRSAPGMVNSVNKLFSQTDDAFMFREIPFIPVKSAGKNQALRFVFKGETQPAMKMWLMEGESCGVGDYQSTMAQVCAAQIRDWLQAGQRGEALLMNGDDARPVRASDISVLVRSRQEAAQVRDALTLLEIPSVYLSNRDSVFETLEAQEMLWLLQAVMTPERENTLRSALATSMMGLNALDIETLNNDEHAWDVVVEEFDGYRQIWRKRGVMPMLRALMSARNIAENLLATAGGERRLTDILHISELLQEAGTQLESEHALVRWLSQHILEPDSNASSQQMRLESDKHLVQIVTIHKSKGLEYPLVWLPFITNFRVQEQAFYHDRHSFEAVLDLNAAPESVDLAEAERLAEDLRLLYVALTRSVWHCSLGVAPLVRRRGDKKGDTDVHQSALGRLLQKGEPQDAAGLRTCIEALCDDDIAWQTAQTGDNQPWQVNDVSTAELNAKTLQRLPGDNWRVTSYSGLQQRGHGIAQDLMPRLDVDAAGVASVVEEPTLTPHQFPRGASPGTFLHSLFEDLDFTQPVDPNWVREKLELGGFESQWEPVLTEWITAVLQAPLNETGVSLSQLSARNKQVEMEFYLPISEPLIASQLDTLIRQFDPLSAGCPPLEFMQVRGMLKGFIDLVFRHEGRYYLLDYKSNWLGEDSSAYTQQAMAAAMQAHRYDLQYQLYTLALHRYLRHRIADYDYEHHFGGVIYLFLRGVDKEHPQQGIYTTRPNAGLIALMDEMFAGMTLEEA

Beta-galactosidase = Beta-galactosidase (Escherichia coli, UniProt Q8VNN2); assay type: functional
Beta-galactosidase, sequence (Q8VNN2 whole entry): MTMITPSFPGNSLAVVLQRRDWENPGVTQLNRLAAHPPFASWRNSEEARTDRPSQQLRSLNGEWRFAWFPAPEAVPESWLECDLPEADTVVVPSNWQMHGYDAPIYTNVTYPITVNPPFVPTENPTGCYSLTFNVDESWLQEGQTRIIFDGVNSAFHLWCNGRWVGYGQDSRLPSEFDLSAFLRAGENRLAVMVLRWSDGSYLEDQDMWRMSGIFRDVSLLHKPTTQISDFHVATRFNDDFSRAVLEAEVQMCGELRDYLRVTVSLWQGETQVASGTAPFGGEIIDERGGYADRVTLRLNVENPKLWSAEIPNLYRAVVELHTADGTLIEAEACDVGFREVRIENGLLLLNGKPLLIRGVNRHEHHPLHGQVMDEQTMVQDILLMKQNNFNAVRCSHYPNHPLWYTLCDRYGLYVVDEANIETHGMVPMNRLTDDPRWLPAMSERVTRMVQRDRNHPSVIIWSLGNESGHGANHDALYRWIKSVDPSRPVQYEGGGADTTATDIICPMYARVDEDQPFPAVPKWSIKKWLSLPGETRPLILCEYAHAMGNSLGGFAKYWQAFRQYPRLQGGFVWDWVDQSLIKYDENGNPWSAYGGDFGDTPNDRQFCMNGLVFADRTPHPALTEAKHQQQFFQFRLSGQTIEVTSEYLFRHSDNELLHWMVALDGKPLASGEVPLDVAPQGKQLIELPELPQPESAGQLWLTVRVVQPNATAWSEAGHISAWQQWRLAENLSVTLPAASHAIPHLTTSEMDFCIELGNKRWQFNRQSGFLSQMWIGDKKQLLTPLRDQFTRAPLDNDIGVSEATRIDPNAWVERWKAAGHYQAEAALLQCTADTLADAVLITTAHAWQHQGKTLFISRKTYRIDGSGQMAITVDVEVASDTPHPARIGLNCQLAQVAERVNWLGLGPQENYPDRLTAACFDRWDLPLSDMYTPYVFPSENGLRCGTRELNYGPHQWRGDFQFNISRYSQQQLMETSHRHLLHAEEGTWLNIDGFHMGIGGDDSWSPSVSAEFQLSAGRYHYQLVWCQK

[4] = target: T2, Kappa-type opioid receptor (Homo sapiens, UniProt P41145); assay type: functional
T2 sequence (P41145 whole entry): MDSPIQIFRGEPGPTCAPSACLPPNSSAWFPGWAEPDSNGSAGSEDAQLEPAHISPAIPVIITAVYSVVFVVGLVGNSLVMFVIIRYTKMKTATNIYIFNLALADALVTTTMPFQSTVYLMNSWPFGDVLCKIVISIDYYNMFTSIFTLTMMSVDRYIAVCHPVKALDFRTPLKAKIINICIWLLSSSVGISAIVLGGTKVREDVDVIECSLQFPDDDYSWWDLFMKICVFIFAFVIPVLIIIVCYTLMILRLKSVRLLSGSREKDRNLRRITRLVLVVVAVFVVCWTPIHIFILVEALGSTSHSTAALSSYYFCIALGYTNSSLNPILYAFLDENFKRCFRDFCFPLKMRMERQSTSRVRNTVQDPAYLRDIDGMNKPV

[5] = target: T2, Kappa-type opioid receptor; assay type: functional; remark: listed apart in the source
[6] = target: T3, Heat shock factor protein 1 (Mus musculus, UniProt P38532); assay: inhibition of MG132-induced HSE-luciferase signal, confirmation, cell-based, NIH3T3, luminescence, dose retest (AID 2382); assay type: functional;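 also: NIH3T3 fibroblasts with HSF1-driven luciferase reporter stressed by proteasome inhibitor MG132; luminescence from HSF1-driven luciferase expression after 8 hours of MG132 stress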
T3 sequence (P38532 whole entry): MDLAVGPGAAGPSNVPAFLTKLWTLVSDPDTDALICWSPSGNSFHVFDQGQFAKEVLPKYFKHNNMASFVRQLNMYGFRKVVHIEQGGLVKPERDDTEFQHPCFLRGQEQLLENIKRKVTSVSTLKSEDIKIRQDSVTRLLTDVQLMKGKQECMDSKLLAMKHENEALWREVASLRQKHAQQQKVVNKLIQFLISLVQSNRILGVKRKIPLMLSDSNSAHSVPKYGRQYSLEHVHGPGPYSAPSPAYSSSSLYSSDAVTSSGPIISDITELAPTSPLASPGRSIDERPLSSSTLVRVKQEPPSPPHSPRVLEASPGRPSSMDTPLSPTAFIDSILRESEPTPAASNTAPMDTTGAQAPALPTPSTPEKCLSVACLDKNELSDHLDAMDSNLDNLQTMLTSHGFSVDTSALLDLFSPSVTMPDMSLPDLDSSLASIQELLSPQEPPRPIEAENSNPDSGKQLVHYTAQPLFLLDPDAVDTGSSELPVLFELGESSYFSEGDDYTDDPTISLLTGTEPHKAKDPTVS

[7] = target: Glucose-6-phosphate 1-dehydrogenase (Homo sapiens, UniProt P11413); assay: human G6PD enzyme inhibitors, dose response, selectivity assay for P. falciparum G6PD inhibitor project, biochemical, fluorescence (AID 504792); assay type: functional
Glucose-6-phosphate 1-dehydrogenase, sequence (P11413 whole entry): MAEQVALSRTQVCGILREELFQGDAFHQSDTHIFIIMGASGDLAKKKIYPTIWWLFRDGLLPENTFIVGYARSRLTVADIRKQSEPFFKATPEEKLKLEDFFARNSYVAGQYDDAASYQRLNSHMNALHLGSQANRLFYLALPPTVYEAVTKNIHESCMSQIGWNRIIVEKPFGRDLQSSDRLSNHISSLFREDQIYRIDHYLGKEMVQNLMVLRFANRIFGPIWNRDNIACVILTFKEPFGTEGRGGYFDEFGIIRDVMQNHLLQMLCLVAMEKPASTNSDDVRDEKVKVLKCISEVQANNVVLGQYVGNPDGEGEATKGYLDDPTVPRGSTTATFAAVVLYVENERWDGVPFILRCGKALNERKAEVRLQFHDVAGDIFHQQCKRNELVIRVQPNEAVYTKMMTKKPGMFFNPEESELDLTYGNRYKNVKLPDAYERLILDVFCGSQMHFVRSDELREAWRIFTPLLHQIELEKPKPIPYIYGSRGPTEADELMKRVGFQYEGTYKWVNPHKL

Vero [8] = assay: Vero cell cytotoxicity, cytotoxicity control for flavivirus capping enzyme inhibitors (AID 588742); assay type: functional; settings: Chlorocebus sabaeus
Vero [9] = assay: cells; assay type: functional; settings: Chlorocebus sabaeus
Cytochrome P450 2D6 = Cytochrome P450 2D6 (Homo sapiens, UniProt P10635);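 also: CYP2D6 member of a cytochrome P450 panel assay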
Cytochrome P450 2D6, sequence (P10635 whole entry): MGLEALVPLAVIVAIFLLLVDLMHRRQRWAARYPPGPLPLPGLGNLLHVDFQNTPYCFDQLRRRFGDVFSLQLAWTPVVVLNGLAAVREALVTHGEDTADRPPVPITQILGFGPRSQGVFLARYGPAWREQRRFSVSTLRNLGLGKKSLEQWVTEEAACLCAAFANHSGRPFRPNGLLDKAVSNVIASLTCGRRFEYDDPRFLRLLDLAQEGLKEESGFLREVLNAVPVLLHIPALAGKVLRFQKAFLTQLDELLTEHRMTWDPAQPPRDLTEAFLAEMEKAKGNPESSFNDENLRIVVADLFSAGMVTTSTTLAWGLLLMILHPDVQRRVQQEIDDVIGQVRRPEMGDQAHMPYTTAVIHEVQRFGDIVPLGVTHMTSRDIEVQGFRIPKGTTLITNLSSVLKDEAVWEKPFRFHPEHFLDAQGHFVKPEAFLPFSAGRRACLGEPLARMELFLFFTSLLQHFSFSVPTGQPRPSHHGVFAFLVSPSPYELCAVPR

HEK293 [10] = assay: optical interference in Abeta FP readout, dose response, artefact control for IDE activator project, biochemical, fluorescence polarization (AID 588442); assay type: functional, cell-based; settings: Homo sapiens
Insulin-degrading enzyme [11] = target: T4, Insulin-degrading enzyme (Homo sapiens, UniProt P14735); assay: activators of endogenous IDE in HEK cells, dose response, cell-based, fluorescence polarization (AID 588439); assay type: functional
T4 sequence (P14735 whole entry): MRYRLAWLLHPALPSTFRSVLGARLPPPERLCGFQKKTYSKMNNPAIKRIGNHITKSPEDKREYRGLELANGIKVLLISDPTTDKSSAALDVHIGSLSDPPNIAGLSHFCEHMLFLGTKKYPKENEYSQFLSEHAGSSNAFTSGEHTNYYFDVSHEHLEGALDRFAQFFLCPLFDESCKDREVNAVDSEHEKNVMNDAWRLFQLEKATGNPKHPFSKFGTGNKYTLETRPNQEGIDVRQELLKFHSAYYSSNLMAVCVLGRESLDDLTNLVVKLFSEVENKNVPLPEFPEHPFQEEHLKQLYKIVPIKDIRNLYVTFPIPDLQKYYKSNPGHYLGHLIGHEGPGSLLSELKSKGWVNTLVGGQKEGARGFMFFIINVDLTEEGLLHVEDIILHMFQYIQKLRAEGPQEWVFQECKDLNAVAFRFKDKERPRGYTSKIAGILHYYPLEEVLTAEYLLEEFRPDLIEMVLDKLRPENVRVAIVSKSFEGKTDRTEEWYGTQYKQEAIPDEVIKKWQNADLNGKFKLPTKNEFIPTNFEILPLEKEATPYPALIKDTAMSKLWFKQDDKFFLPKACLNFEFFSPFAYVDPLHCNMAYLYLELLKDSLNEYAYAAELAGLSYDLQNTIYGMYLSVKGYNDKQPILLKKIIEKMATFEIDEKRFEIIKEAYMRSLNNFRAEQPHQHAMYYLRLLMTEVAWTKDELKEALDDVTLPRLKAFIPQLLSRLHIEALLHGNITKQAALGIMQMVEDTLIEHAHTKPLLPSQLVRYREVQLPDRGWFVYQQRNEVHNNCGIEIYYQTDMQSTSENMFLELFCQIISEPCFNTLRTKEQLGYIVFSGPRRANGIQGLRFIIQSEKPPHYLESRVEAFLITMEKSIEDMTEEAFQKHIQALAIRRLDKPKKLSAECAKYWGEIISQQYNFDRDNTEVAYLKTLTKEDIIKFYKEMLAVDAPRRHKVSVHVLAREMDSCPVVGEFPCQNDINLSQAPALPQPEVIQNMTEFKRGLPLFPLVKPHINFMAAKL

Insulin-degrading enzyme [12] = target: T4, Insulin-degrading enzyme; assay: activators of recombinant IDE enzyme, dose response, counter-screen for IDE activator project, biochemical, fluorescence polarization (AID 588681)
HEK293 [13] = assay: HEK cell cytotoxicity by LDH release, dose response, cytotoxicity control for IDE activator project, fluorescence, HEK cells (AID 588440); assay type: functional, cell-based, Homo sapiens; settings: Homo sapiens, HEK293;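 also: cytotoxicity by LDH release measuring loss of membrane integrity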

Cytochrome P450 2C9, sequence (P11712 whole entry): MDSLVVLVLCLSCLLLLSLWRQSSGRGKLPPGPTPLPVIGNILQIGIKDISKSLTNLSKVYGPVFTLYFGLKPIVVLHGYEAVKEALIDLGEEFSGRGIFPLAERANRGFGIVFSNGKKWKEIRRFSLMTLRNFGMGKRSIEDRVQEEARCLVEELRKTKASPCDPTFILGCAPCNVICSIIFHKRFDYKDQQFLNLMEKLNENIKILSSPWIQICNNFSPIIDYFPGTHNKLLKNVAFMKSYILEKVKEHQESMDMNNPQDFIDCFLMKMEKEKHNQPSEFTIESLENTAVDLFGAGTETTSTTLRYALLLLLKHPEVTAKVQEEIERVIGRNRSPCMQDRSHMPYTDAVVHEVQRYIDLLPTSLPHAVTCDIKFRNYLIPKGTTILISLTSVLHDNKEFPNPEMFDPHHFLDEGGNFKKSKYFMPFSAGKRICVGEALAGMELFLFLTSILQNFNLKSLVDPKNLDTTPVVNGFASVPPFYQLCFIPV

CN(Cc1nnc(S)n1C)S(=O)(=O)c1ccccc1
AC50 (Cytochrome P450 2C9): inconclusive

O=C(O)c1cc(-c2ccc3ccccc3c2)nc2ccc(F)cc12
IC50 (Vero [1]): > 25 µM (active) | CC50 [2]: 12.1 µM (active) | IC50 (cells): 19.2 µM (active)

O=C(CSC1=NNC(c2ccccn2)S1)Nc1ccccc1 (stereo not given)
IC50 (Nonstructural protein 1): 0.986 µM (active) | IC50 [3]: > 118 µM (inactive) | IC50 (Exodeoxyribonuclease V): > 118 µM (inactive) | EC50 (Beta-galactosidase): > 31.5 µM (inactive) | IC50 [4]: > 31.5 µM (inactive) | IC50 [5]: > 32 µM | EC50 [6]: 3.04 µM (active)

CSc1nc(Cl)cc(N(CCO)CCO)n1
AC50 (Cytochrome P450 2C9): inconclusive

CC(=O)Nc1cc([N+](=O)[O-])ccc1OCc1ccccc1
IC50 [7]: > 80 µM (inactive)

CN=c1ccc(Br)cc(C(=O)/C=C/c2cccc(Cl)c2Cl)c1O
IC50 (Vero [1]): > 25 µM (active) | CC50 (Vero [8]): 18 µM (active) | CC50 (Vero [9]): 9.23 µM (active)

O=C1Nc2ccccc2C2=NC(CN3CCN(c4cccc(Cl)c4)CC3)CN12 (stereo not given)
AC50 (Cytochrome P450 2C9): inconclusive

CCN1C(=O)/C(=C2\SC(N3CCCCC3)=NC2=O)c2ccccc21
AC50 (Cytochrome P450 2D6): 3.16 µM (inconclusive) | AC50 (Cytochrome P450 2C9): inconclusive

CCn1c(=O)c([N+](=O)[O-])c(NCc2ccc3c(c2)OCO3)c2ccccc21
EC50 (HEK293 [10]): > 55.9 µM (inactive) | EC50 (Insulin-degrading enzyme [11]): > 54.7 µM (inactive) | EC50 (Insulin-degrading enzyme [12]): > 54.7 µM (inactive) | IC50 (HEK293 [13]): > 89.2 µM (inactive)

O=C(O)CC1SC(N/N=C/c2ccccn2)=NC1=O (stereo not given)
IC50 [3]: > 118 µM (inactive) | IC50 (Exodeoxyribonuclease V): > 118 µM (inactive)
